This passage reports IC50 results from patent US10821115B2, “Compounds that inhibit Mcl-1 protein” (priority 2017, dated 2020).

The IC50 is the concentration at which inhibition is half-maximal.

For assay [1], the system named is human multiple myeloma cell line, OPM-2. The experiment in a line: Cell viability assay (OPM-2 10 FBS), CellTiter-Glo. It counts as cell-based. The method in brief:
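OPM-2 cells at 3000 cells/well in RPMI 1640 with 10% FBS were exposed to serially diluted compounds for 16 h at 37 °C, 5% CO2.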
(In ATP-based viability assays light output follows the ATP content of the culture.)

Assay [2] deals with recombinant human Mcl-1 (residues 171-327) / Bim interaction (Homo sapiens (Human), UniProt Q07820). Put plainly: biochemical. It counts as binding. Particulars: read-out: Mcl-1 HTRF IC50.
Sequence of recombinant human Mcl-1 (residues 171-327) / Bim interaction (Q07820 171-327): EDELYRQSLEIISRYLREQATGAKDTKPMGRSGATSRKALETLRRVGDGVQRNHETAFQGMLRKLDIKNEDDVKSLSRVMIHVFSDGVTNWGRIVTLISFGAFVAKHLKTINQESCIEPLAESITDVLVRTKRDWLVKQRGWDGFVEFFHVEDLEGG
Method: The inhibition of the Mcl-1/Bim interaction was measured using a time-resolved fluorescence resonance energy transfer (TR-FRET) assay. […] The TR-FRET assay was conducted in a 384-well white OptiPlate™ (PerkinElmer, Waltham, Mass.) in a total volume of 40 μL. The reaction mixture contained 0.1 nM Mcl-1(171-327), 0.05 nM biotin-Bim (51-76), 0.05 nM LANCE® Eu-W1024 Anti-6×His (PerkinElmer), 0.072 nM Streptavidin-Xlent (Cisbio, Bedford, Mass.), and serially diluted test compounds in the binding buffer of 20 mM Hepes, pH 7.5, 150 mM NaCl, 0.016 mM Brij®35, and 1 mM dithiothreitol. Test compounds were pre-incubated with Mcl-1(171-327) and biotin-Bim (51-76) for 60 min before addition of the detection mixture (LANCE® Eu-W1024 Anti-6×His and Streptavidin-Xlent). The reaction plates were further incubated overnight and then were read on an Envision® multimode reader (PerkinElmer). Fluorescence signals were measured at 620 nm (40-nm bandwidth) and 665 nm (7.5-nm bandwidth) with a 60 is delay after excitation at 320 nm (75-nm bandwidth). The signal ratio at 665/620 nm corresponded to the Mcl-1/Bim interaction and was used in all data analyses. The IC50 values of test compounds were determined from duplicate data by analyzing competition curves using a four-parameter sigmoidal model in GraphPad Prism (GraphPad Software, San Diego, Calif.) or in Genedata Screener® (Genedata, Basel, Switzerland).
[3] abbreviates: Homo sapiens, OPM-2, 16 h, read-out: OPM-2 10% FBS IC50 IP, OPM-2 cells, 10% FBS, 16 h, CellTiter-Glo.
The mark [4] stands for this setting: TR-FRET, Mcl-1(171-327) / biotin-Bim (51-76).
Setting [5] is: 0.1 nM Mcl-1(171-327), 0.05 nM biotin-Bim (51-76).
Setting [6] is: Homo sapiens, OPM-2, 16 h, read-out: OPM-2 10% FBS IC50 IP, OPM-2 cells, 10% FBS, 16 h incubation.

Where two headings read alike, the source gives them in different places.

As for `C[C@@H]1[C@@H](C)CCC[C@](CO)(OCCN2CCOCC2)[C@@H]2CC[C@H]2CN2C[C@@]3(CCCc4cc(Cl)ccc43)COc3ccc(cc32)C(=O)NS1(=O)=O` [Example 100280, (1S,3′R,6′R,7′S,11′S,12′R)-6-chloro-7′-(hydroxymethyl)-11′,12′-dimethyl-7′-(2-(4-morpholinyl)ethoxy)-3,4-dihydro-2H,15′H-spiro[naphthalene-1,22′-[20]oxa[13]thia[1,14]diazatetracyclo [14.7.2.0~3,6~.0~19,24~]pentacosa[16,18,24]trien]-15′-one 13′,13′-dioxide], the IC50 in assay [1] (setting [3]) worked out at 305 nM; in assay [2] (setting [4]), 0.368 nM.
Take `CC(=O)N[C@@]1(C#N)CCC[C@H](C)[C@@H](C)S(=O)(=O)NC(=O)c2ccc3c(c2)N(C[C@@H]2CC[C@H]21)C[C@@]1(CCCc2cc(Cl)ccc21)CO3` [Example 100263, N-((1S,3′R,6′R,7′S,11′S,12′R)-6-chloro-7′-cyano-11′,12′-dimethyl-13′,13′-dioxido-15′-oxo-3,4-dihydro-2H-spiro[naphthalene-1,22′-[20]oxa[13]thia[1,14]diazatetracyclo [14.7.2.0~3,6~.0~19,24~]pentacosa[16,18,24]trien]-7′-yl)acetamide]: the IC50 in assay [1] (setting [3]) worked out at 3390 nM; in assay [2] (setting [4]), 1.83 nM.
As for `CO[C@]1(CN2CCN3CC[C@H](F)C[C@@H]3C2)/C=C/C[C@H](C)[C@@H](C)S(=O)(=O)NC(=O)c2ccc3c(c2)N(C[C@@H]2CC[C@H]21)C[C@@]1(CCCc2cc(Cl)ccc21)CO3` (single isomer, unassigned) [Example 326], the IC50 in assay [1] (read-out: OPM-2 10% FBS IC50 IP, OPM-2 cells, 10% FBS, 16 h incubation) is 488 nM; in assay [2] (setting [5]) it was 0.307 nM.
As to `COC(=O)N1CCN(C[C@]2(OC)/C=C/C[C@H](C)[C@@H](C)S(=O)(=O)NC(=O)c3ccc4c(c3)N(C[C@@H]3CC[C@H]32)C[C@@]2(CCCc3cc(Cl)ccc32)CO4)CC1` [Example 266, methyl 4-(((1S,3′R,6′R,7′S,8′E,11′S, 12′R)-6-chloro-7′-methoxy-11′,12′-dimethyl-13′,13′-dioxido-15′-oxo-3,4-dihydro-2H-spiro[naphthalene-1,22′-[20]oxa[13]thia[1,14]diazatetracyclo [14.7.2.0~3,6~.0~19,24~]pentacosa[8,16,18,24]tetraen]-7′-yl)methyl)-1-piperazinecarboxylate], the IC50 amounted to 723 nM in assay [1] (setting [6]) and 0.282 nM in assay [2] (setting [5]).
As for `CO[C@]1(CCN2CCN3CCCC[C@@H]3C2)CCC[C@H](C)[C@@H](C)S(=O)(=O)NC(=O)c2ccc3c(c2)N(C[C@@H]2CC[C@H]21)C[C@@]1(CCCc2cc(Cl)ccc21)CO3` [Example 100592, (1S,3′R,6′R,7′S,11′S,12′R)-6-chloro-7′-methoxy-11′,12′-dimethyl-7′-(2-((9aR)-octahydro-2H-pyrido[1,2-a]pyrazin-2-yl)ethyl)-3,4-dihydro-2H,15′H-spiro[naphthalene-1,22′-[20]oxa[13]thia[1,14]diazatetracyclo [14.7.2.0~3,6~.0~19,24~]pentacosa[16,18,24]trien]-15′-one 13′,13′-dioxide], the concentration for half-maximal inhibition (IC50) in assay [1] (setting [3]) was found to be 139 nM; in assay [2] (setting [4]) it was 0.275 nM.
On to `CO[C@]1(CCOS(C)(=O)=O)/C=C/C[C@H](C)[C@@H](C)S(=O)(=O)NC(=O)c2ccc3c(c2)N(C[C@@H]2CC[C@H]21)C[C@@]1(CCCc2cc(Cl)ccc21)CO3` [Example 100351, 2-((1S,3′R,6′R,7′R,8′E,11′S,12′R)-6-chloro-7′-methoxy-11′,12′-dimethyl-13′,13′-dioxido-15′-oxo-3,4-dihydro-2H-spiro[naphthalene-1,22′-[20]oxa[13]thia[1,14]diazatetracyclo [14.7.2.0~3,6~.0~19,24~]pentacosa[8,16,18,24]tetraen]-7′-yl)ethyl methanesulfonate], for which the 50% inhibitory concentration (IC50) in assay [1] (setting [3]) was 2020 nM; in assay [2] (setting [4]), 0.115 nM.
With `C[C@@H]1[C@@H](C)C/C=C/[C@@](O)(C#CCCO)[C@@H]2CC[C@H]2CN2C[C@@]3(CCCc4cc(Cl)ccc43)COc3ccc(cc32)C(=O)NS1(=O)=O` [Example 100422, (1S,3′R,6′R,7′S,8′E,11′S,12′R)-6-chloro-7′-hydroxy-7′-(4-hydroxy-1-butyn-1-yl)-11′,12′-dimethyl-3,4-dihydro-2H,15′H-spiro[naphthalene-1,22′-[20]oxa[13]thia[1,14]diazatetracyclo [14.7.2.0~3,6~.0~19,24~]pentacosa[8,16,18,24]tetraen]-15′-one 13′,13′-dioxide], the IC50 was 182 nM in assay [1] (setting [3]) and 0.174 nM in assay [2] (setting [4]).
For the compound `CO[C@@]1(C)/C=C/C[C@H](C)[C@@H](C)S(=O)(=O)NC(=O)c2ccc3c(c2)N(C[C@@H]2CC[C@H]21)C[C@@]1(CCCc2cc(Cl)ccc21)CO3` [Example 100014, (1S,3′R,6′R,7′S,8′E, 11′S, 12′R)-6-chloro-7′-methoxy-7′,11′,12′-trimethyl-3,4-dihydro-2H,15′H-spiro[naphthalene-1,22′-[20]oxa[13]thia[1,14]diazatetracyclo[14.7.2.0-3,6˜.0˜19,24˜]pentacosa[8,16,18,24]tetraen]-15′-one 13′,13′-dioxide], the IC50 was found to be 330 nM in assay [1] (setting [3]) and 0.228 nM in assay [2].
In the case of `C[C@@H]1[C@@H](C)C/C=C/[C@@](O)(c2ccncn2)[C@@H]2CC[C@H]2CN2C[C@@]3(CCCc4cc(Cl)ccc43)COc3ccc(cc32)C(=O)NS1(=O)=O` (single isomer, unassigned) [Example 100360], the values for the IC50 in assay [1] (setting [3]) and in assay [2] (setting [4]) were 1230 nM and 0.848 nM, respectively.
In the case of `CO[C@@]1(C[C@H](O)c2ccccn2)/C=C/C[C@H](C)[C@@H](C)S(=O)(=O)NC(=O)c2ccc3c(c2)N(C[C@@H]2CC[C@H]21)C[C@@]1(CCCc2cc(Cl)ccc21)CO3` (single isomer, unassigned) [Example 100490], the concentration for half-maximal inhibition (IC50) was found to be 511 nM in assay [1] (read-out: OPM-2 10% FBS IC50 IP, OPM-2 cells, 10% FBS, 16 h, CellTiter-Glo) and 0.292 nM in assay [2] (setting [4]).
Regarding `Cc1ccc([C@]2(O)/C=C/C[C@H](C)[C@@H](C)S(=O)(=O)NC(=O)c3ccc4c(c3)N(C[C@@H]3CC[C@H]32)C[C@@]2(CCCc3cc(Cl)ccc32)CO4)nc1` (single isomer, unassigned) [Example 100439], the IC50 in assay [1] (setting [3]) worked out at 2640 nM; in assay [2] (setting [4]), 0.619 nM.
Turning to `C[C@@H]1[C@@H](C)CCC[C@](O)(CS(C)(=O)=O)[C@@H]2CC[C@H]2CN2C[C@@]3(CCCc4cc(Cl)ccc43)COc3ccc(cc32)C(=O)NS1(=O)=O` (stereo in doubt) [Example 100161], the values for the half-inhibitory concentration (IC50) in assay [1] (setting [3]) and in assay [2] (setting [4]) were 757 nM and 0.355 nM, respectively.
As for `COCCOCCN1CCN(C[C@]2(OC)/C=C/C[C@H](C)[C@@H](C)S(=O)(=O)NC(=O)c3ccc4c(c3)N(C[C@@H]3CC[C@H]32)C[C@@]2(CCCc3cc(Cl)ccc32)CO4)CC1` [Example 332, (1S,3′R,6′R,7′S,8′E,11′S,12′R)-6-chloro-7′-methoxy-7′-((4-(2-(2-methoxyethoxy)ethyl)-1-piperazinyl)methyl)-11′,12′-dimethyl-3,4-dihydro-2H,15′H-spiro[naphthalene-1,22′-[20]oxa[13]thia[1,14]diazatetracyclo [14.7.2.0~3,6~.0~19,24~]pentacosa[8,16,18,24]tetraen]-15′-one 13′,13′-dioxide], the IC50 is 89 nM in assay [1] (setting [6]) and 0.096 nM in assay [2] (setting [5]).
For `CCO[C@]1(CN2CCN3CCCC[C@@H]3C2)/C=C/CC[C@@H](CC)S(=O)(=O)NC(=O)c2ccc3c(c2)N(C[C@@H]2CC[C@H]21)C[C@@]1(CCCc2cc(Cl)ccc21)CO3` [Example 42, (1S,3′R,6′R,7′R,8′E,12′R)-6-chloro-7′-ethoxy-12′-ethyl-7′-((9aR)-octahydro-2H-pyrido[1,2-a]pyrazin-2-ylmethyl)-3,4-dihydro-2H,15′H-spiro[naphthalene-1,22′-[20]oxa[13]thia[1,14]diazatetracyclo [14.7.2.0~3,6~.0~19,24~]pentacosa[8,16,18,24]tetraen]-15′-one 13′,13′-dioxide] the same measures were 149 nM and 0.17 nM.
`CO[C@]1(CN2CCN(C3COCCOC3)CC2)/C=C/C[C@H](C)[C@@H](C)S(=O)(=O)NC(=O)c2ccc3c(c2)N(C[C@@H]2CC[C@H]21)C[C@@]1(CCCc2cc(Cl)ccc21)CO3` [Example 342, (1S,3′R,6′R,7′R,8′E,11′S,12′R)-6-chloro-7′-((4-(1,4-piperazinyl)methyl)-7′-dioxepan-6-yl)-1-methoxy-11′,12′-dimethyl-3,4-dihydro-2H,15′H-spiro[naphthalene-1,22′-[20]oxa[13]thia[1,14]diazatetracyclo [14.7.2.0~3,6~.0~19,24~]pentacosa[8,16,18,24]tetraen]-15′-one 13′,13′-dioxide]: the IC50 in assay [1] (setting [6]) amounted to 104 nM; in assay [2] (setting [5]), 0.089 nM.
As to `COCC[C@@H]1[C@@H](C)C/C=C/[C@](CN2CCN(Cc3noc(C)n3)CC2)(OC)[C@@H]2CC[C@H]2CN2C[C@@]3(CCCc4cc(Cl)ccc43)COc3ccc(nc32)C(=O)NS1(=O)=O` [Example 26, (1S,3′R,6′R,7′S,8′E,11′S,12′R)-6-chloro-7′-methoxy-12′-(2-methoxyethyl)-11′-methyl-7′-((4-((5-methyl-1,2,4-oxadiazol-3-yl)methyl)-1-piperazinyl)methyl)-3,4-dihydro-2H,15′H-spiro[naphthalene-1,22′-[20]oxa[13]thia[1,14,25]triazatetracyclo [14.7.2.0~3,6~.0~19,24~]pentacosa[8,16,18,24]tetraen]-15′-one 13′,13′-dioxide], the results for the IC50 in assay [1] (setting [6]) and in assay [2] (setting [5]) were 32 nM and 0.079 nM, respectively.
